Data from patent publication US10357036B2, “Compounds for controlling arthropods” (priority 2015, dated 2019).
Read-outs that look alike come from different tables or passages of the source.

How the values were obtained:
Myzus persicae [1] = test: Myzus persicae spray test (Chinese cabbage leaf discs); assay type: in vivo; conditions: 100 g/ha; after 6 days
Method: (§1) After 6 days, the efficacy in % is determined.

Ctenocephalides felis [2] = test: Ctenocephalides felis in vitro contact test with adult cat fleas; assay type: in vivo; conditions: application rate 5 μg/cm^2 (=500 g/ha); after 48 h; dead or moribund fleas
In short: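 After 48 h at room temperature and ambient humidity, adult cat fleas (5–10 per tube) were scored, with motionless or uncoordinated fleas counted dead or moribund. Tubes had been coated with acetone solutions of compound, the 900 ppm solution giving 5 μg/cm². Efficacy: 100% means all fleas dead or moribund, 0% none harmed.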

Boophilus microplus = Boophilus microplus injection test; assay type: in vivo; conditions: 20 μg/animal; assessed after 7 days
Method: (§2) • Solvent: dimethyl sulfoxide
1 μl of the active ingredient solution is injected into the abdomen of 5 engorged adult female cattle ticks (Boophilus microplus). The animals are transferred into dishes and kept in a climate-controlled room.

Amblyomma hebraeum = Amblyomma hebraeum test (tick nymphs, immersion); assay type: in vivo; conditions: 100 ppm; after 42 days
Method: as §2
(§3) To produce a suitable active ingredient formulation, 10 mg of active ingredient are mixed with 0.5 ml of dimethyl sulfoxide, and the concentrate is diluted with water to the desired concentration.
Tick nymphs (Amblyomma hebraeum) are placed into perforated plastic beakers and immersed in the desired concentration for one minute. The ticks are transferred on filter paper into a Petri dish and stored in a climate-controlled cabinet.

Rhipicephalus sanguineus = Rhipicephalus sanguineus in vitro contact test with adult brown dog ticks; assay type: in vivo; conditions: application rate 5 μg/cm^2 (=500 g/ha); after 48 h; dead or moribund ticks
In short: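 Efficacy, as % of ticks dead or moribund, was judged 48 h after placing 5-10 adult brown dog ticks in acetone-coated tubes (5 μg/cm^2 from 900 ppm) kept dark at room temperature. Ticks unable to climb away from a 45-50° C hotplate within 5 min counted as affected.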

Phaedon cochleariae = Phaedon cochleariae spray test; conditions: for efficacy: 100 g/ha, after 7 days; for pest or weed control at 100 g/ha: Phaedon cochleariae, 168 h, read-out: efficacy
Spodoptera frugiperda = Spodoptera frugiperda spray test; assay type: in vivo; conditions: 100 g/ha, after 7 days; for pest or weed control at 100 g/ha: Spodoptera frugiperda, 168 h, read-out: efficacy
Tetranychus urticae = Tetranychus urticae spray test, OP-resistant (bean leaf discs); assay type: in vivo; conditions: 100 g/ha; after 6 days
Method: as §1

Ctenocephalides felis [3] = test: Ctenocephalides felis oral test; assay type: in vivo; conditions: 100 ppm in citrated cattle blood; after 2 days
Musca domestica = Musca domestica test; assay type: in vivo; conditions: 100 ppm; adult houseflies; after 2 days
Method: as §2, §3
Vessels containing a sponge treated with sugar solution and the active ingredient formulation of the desired concentration are populated with 10 adult houseflies (Musca domestica).

[4] = tested on: cattle ticks (Boophilus microplus) Parkhurst strain, SP-resistant; test: Boophilus microplus dip test; assay type: in vivo; conditions: 100 ppm; assessed after 7 days
In short: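 Engorged adult female ticks (8-10 per tube) fully immersed in compound from DMSO stock diluted with water to test concentration, then held in a climate-controlled room. Efficacy scored after 7 days from fertile egg laying, with eggs kept until hatching at about 42 days. 100% means no fertile eggs laid.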

[5] = tested on: Amaranthus retroflexus (AMARE); test: Herbicidal activity, pre-emergence; assay type: in vivo; conditions: 1280 g/ha, 3 weeks
From the text: (§4) Seeds of monocotyledonous and dicotyledonous weed plants and crop plants were placed in wood-fibre pots in sandy loam and covered with soil. The compounds according to the invention, formulated as emulsion concentrates (EC), were then applied to the surface of the covering soil as an emulsion at a water application rate equating to 600 to 800 Uha with addition of 0.2% wetting agent.
(§5) After the treatment, the pots were placed in a greenhouse and kept under good growth conditions for the test plants. The damage to the test plants was scored visually after a test period of 3 weeks by comparison with untreated controls (herbicidal activity in percent (%): 100% activity=the plants have died, 0% activity=like control plants). Here, for example, compounds No. Ia-17, Ia-37, Ia-28 and Ia-56 at an application rate of 1280 g/ha each show 100% efficacy against Amaranthus retroflexus (AMARE) and with the exception of Ia-56, even against Viola tricolor (VIOTR). Furthermore, compounds no. Ia-17, Ia-37 and Ia-28 at the same application rate show an 80% or better efficacy against Matricaria inodorae (MATIN) and Ia-17 and Ia-37 even against Stellaria media (STEME).

Viola tricolor (VIOTR) = test: Herbicidal activity, pre-emergence; assay type: in vivo; conditions: 1280 g/ha, 3 weeks
From the text: as §4, §5

[6] = tested on: Abutilon theophrasti (ABUTH); test: Herbicidal activity, post-emergence; assay type: in vivo; conditions: 1280 g/ha, 3 weeks
Method: (§6) Seeds of monocotyledonous and dicotyledonous weeds and crop plants were placed in sandy loam in wood-fibre pots, covered with soil and cultivated in a greenhouse under good growth conditions. 2 to 3 weeks after sowing, the test plants are treated at the one-leaf stage. The compounds according to the invention, formulated as emulsion concentrates (EC), were then sprayed onto the green plant parts as an emulsion at a water application rate equating to 600 to 800 Uha with addition of 0.2% wetting agent. After the test plants have been left to stand in the greenhouse under optimal growth conditions for 3 weeks, the efficacy of the preparations was assessed visually in comparison to untreated controls (herbicidal efficacy in percent (%): 100% activity=the plants have died, 0% activity=like control plants). For example, compounds No. Ia-17, Ia-28 and Ia-37 at an application rate of 1280 g/ha each show at least 100% efficacy against Amaranthus retroflexus (AMARE) and Viola tricolor (VOTR).

Stellaria meida (STEME) = test: Herbicidal activity, post-emergence; assay type: in vivo; conditions: 1280 g/ha, 3 weeks
Method: as §6

[7] = tested on: Matricaria inodora (MATIN); test: Herbicidal activity, post-emergence; assay type: in vivo; conditions: 1280 g/ha, 3 weeks
Method: as §6

Myzus persicae [8] = test: Myzus persicae spray test (bell pepper plants); assay type: in vivo; conditions: 4 ppm; after 6 days
Method: To produce further test concentrations, the latter is diluted with emulsifier-containing water. When addition of ammonium salts and/or penetrants is required, these are each added at a concentration of 1000 ppm to the preparation solution.
Bell pepper plants (Capsicum annuum), which are heavily infested by the green peach aphid (Myzus persicae), are treated by being sprayed with the active compound preparation at the desired concentration.
After 6 days, the kill in % is determined.

[9] = tested on: Anopheles gambiae strain RSPH (homozygot kdr); test: whole plant or invertebrate; assay type: in vivo; conditions: read-out: efficacy (mortality)
Method: (§7) • Solvent: acetone+2000 ppm rapeseed oil methyl ester (RME)
(§8) To produce a suitable active compound formulation, the active compound is dissolved in the solvent (2 mg/ml). The active compound formulation is pipetted onto a glazed tile and, after it has dried off, adult mosquitoes of the species Anopheles gambiae strain RSPH (homozygot kdr) are placed onto the treated tile. The exposure time is 30 minutes.

[10] = tested on: Aedes aegypti strain MONHEIM; test: whole plant or invertebrate; assay type: in vivo; conditions: read-out: efficacy (mortality)
Method: as §7
as §8, with “Aedes aegypti” for “Anopheles gambiae”, “MONHEIM” for “RSPH (homozygot kdr)”

[11] = tested on: Anopheles funestus strain FUMOZ-R; test: whole plant or invertebrate; assay type: in vivo; conditions: read-out: efficacy (mortality)
Method: as §7
as §8, with “funestus” for “gambiae”, “FUMOZ-R (Hunt et al., Med Vet Entomol. 2005 September; 19 (3):271-5)” for “RSPH (homozygot kdr)”

[12] = reversed-phase C18 HPLC column, logP, HPLC, C18, acetonitrile/water with formic acid (note a)

SMILES	efficacy (Ctenocephalides felis [2])	efficacy (laying of fertile eggs) (Boophilus microplus)	efficacy (Rhipicephalus sanguineus)	efficacy (Phaedon cochleariae)	efficacy (Spodoptera frugiperda)	efficacy (Tetranychus urticae)	efficacy (rate of extermination) (Ctenocephalides felis [3])	efficacy (rate of extermination) (Musca domestica)	efficacy (laying of fertile eggs) [4]	herbicidal efficacy [5]	herbicidal efficacy (Viola tricolor (VIOTR))	further results
CCC(=O)NCc1cc(-c2cnn(-c3c(C)cc(C(F)(C(F)(F)F)C(F)(F)F)cc3C)c2)ccc1F [Ia-01]	100%	100%	100%	100%	100%	100%	100%	100%	100%	–	–	efficacy (Myzus persicae [1]): 100%; efficacy (rate of extermination) (Amblyomma hebraeum): 100%
CC(=O)NCc1cccc(-c2cnn(-c3c(Cl)cc(C(F)(C(F)(F)F)C(F)(F)F)cc3[S+](C)[O-])c2)c1 (stereo not shown) [Ia-17]	–	–	–	–	–	–	–	–	–	100%	100%	herbicidal efficacy [6]: ≥ 80%; herbicidal efficacy (Stellaria meida (STEME)): ≥ 80%; herbicidal efficacy [7]: ≥ 80%
CC(=O)NCc1cc(-c2cnn(-c3c(C)cc(C(F)(C(F)(F)F)C(F)(F)F)cc3C)c2)ccc1F [Ia-13]	100%	100%	100%	100%	100%	100%	100%	100%	100%	–	–	efficacy (Myzus persicae [1]): 100%; efficacy (rate of extermination) (Amblyomma hebraeum): 100%
CC(=O)NCc1cc(-c2cnn(-c3c(C)cc(C(F)(C(F)(F)F)C(F)(F)F)cc3C)c2)ccc1Cl [Ia-95]	100%	100%	80%	100%	100%	100%	100%	100%	100%	–	–	efficacy (kill) (Myzus persicae [8]): 85%
CC(=O)NCc1cccc(-c2cnn(-c3c(C)cc(C(F)(C(F)(F)F)C(F)(F)F)cc3C)c2)c1 [Ia-37]	–	100%	80%	100%	83%	100%	100%	100%	–	100%	100%	–
CC(=O)NCc1cc(-c2cnn(-c3c(Cl)cc(C(F)(C(F)(F)F)C(F)(F)F)cc3Cl)c2)ccc1Cl [Ia-05, N-(2-chloro-5-{1-[2,6-dichloro-4-(1,1,1,2,3,3,3-heptafluoropropan-2-yl)phenyl]-1H-pyrazol-4-yl}benzyl)acetamide]	100%	100%	100%	–	–	–	100%	100%	–	–	–	chromatographic logP [12]: 4.13; chromatographic logP (reversed-phase C18 HPLC column, logP^a, HPLC-MS method a)): 4.13; mortality at 20 mg/m2 [9]: 90 to 100%; mortality at 100 mg/m2 [9]: 90 to 100%; mortality at 20 mg/m2 [10]: 90 to 100%; mortality at 100 mg/m2 [10]: 90 to 100%; pest or weed control at 100 g/ha (Phaedon cochleariae): 100%; mortality at 20 mg/m2 [11]: 90 to 100%; mortality at 100 mg/m2 [11]: 90 to 100%; pest or weed control at 100 g/ha (Spodoptera frugiperda): 100%
CCC(=O)NCc1cccc(-c2cnn(-c3c(C)cc(C(F)(C(F)(F)F)C(F)(F)F)cc3C)c2)c1 [Ia-28]	–	100%	80%	100%	100%	100%	100%	100%	80%	100%	100%	–
CC(=S)NCc1cc(-c2cnn(-c3c(Cl)cc(C(F)(C(F)(F)F)C(F)(F)F)cc3Cl)c2)ccc1Cl [Ia-162, N-(2-chloro-5-{1-[2,6-dichloro-4-(1,1,1,2,3,3,3-heptafluoropropan-2-yl)phenyl]-1H-pyrazol-4-yl}benzyl)ethanethioamide]	100%	100%	100%	–	–	100%	100%	100%	80%	–	–	chromatographic logP [12]: 4.98; chromatographic logP (reversed-phase C18 HPLC column, logP^a, HPLC-MS method a), reversed-phase column (C18)): 4.98; mortality at 20 mg/m2 [9]: 90 to 100%; mortality at 20 mg/m2 [10]: 90 to 100%; pest or weed control at 100 g/ha (Phaedon cochleariae): 100%; mortality at 20 mg/m2 [11]: 90 to 100%; pest or weed control at 100 g/ha (Spodoptera frugiperda): 100%
